Measured values as given in US20230321083A1, “Inhibitors of GPR174 and Uses Thereof” (Omeros Corporation, priority 2016, published 2023).

Legend:
Assay type in all cases: cell-based
[1] = biological target: T1, ADBR2 (Homo sapiens, UniProt P07550); experiment: CRE-Luc reporter Gs signaling assay, control receptor ADBR2
T1 construct: host or cells: HEK293 or CHO cell lines (ATCC)
Method: (§1) Compounds were tested in the reporter system with increasing concentrations of GPR174-interacting compounds. GPR174 construct pCMV6-XL4-GPR174 or ADBR2, reporter of interest, pCRE-Luc or GL4.29 (3000 ng), and TK-renilla as an internal control (10 ng) with lipofectamine 2000 (60 ug) (Invitrogen, CA) according to the manufacturer's directions.
(§2) The DNA/lipofectamine 2000 mix (3000 μL) was incubated at room temperature for 30 minutes and then added into a 10 cm culture dish (Corning, NY) containing 70-90% confluent cultured cells, typically HEK293 or CHO cell lines (ATCC, VA), in 15 mL of media. The cells were further incubated for 4-6 hours at 37° C. and then media were removed and cells were detached with 2 mL trypsin (Life Technologies, CA). Media (26 mL) were added to the detached cells and 120 μL of transfected cells were transferred to each well on a 96-well plate. Increasing concentration of each compound in DMSO (1.2 μl) was added to the cells after plating into the 96-well plate. The cells were further incubated at 37° C. for various times. The media were removed and the cells lysed. Luciferase and renilla activities were measured with the Dual-luciferase assay system (Promega, WI) according to the manufacturer's directions. Typically, lysis buffer (25 μL) was added to the cells and incubated at room temperature for 20-30 minutes to allow for the cells to lyse. The lysate (10 μL) was measured for luciferase and renilla activity with LARII and Stop&Glo reagent (50 μL each) with a SpectraMax L (Molecular Devices, CA). Data were analyzed with either Excel (Microsoft, WA) or Prism 4.03 (GraphPad, CA).
(§3) ADBR2 is a GPCR, like GPR174, that activates the Gs signaling pathway.

[2] = tested on: CHRM1; experiment: Cellular Redistribution Assay (CRA) against CHRM1; settings: FIG. 5B
Excerpt: (§4) The inventors used a CRA similar to that described in U.S. Pat. No. 7,309,576 and O'Dowd et al., J. Biomol. Screen. 12:175-85, 2007 to identify compounds that are capable of interacting with GPR174 using a library of approximately 370,000 chemical entities. Briefly described, the CRA assay described in U.S. Pat. No. 7,309,576 involves artificially inserting a NLS into the dopamine D1 receptor (DRD1), which allows the receptor to traffic from the cell membrane to the cell interior, and that the binding of antagonists to the receptor retained the receptor at the cell surface, while removal of the ligand allowed the receptor to continue to internalize from the cell surface. Both antagonists and agonists that selectively bound the receptor retained the receptor on the plasma membrane. GPR174 constructs were generated for use in a CRA-based compound screening assay. From this screen, the inventors initially identified compounds of formula I-VI, as described herein and included in TABLE 1.
The inventors also sought to validate that the compounds identified using the CRA are modulatory compounds. To this end, the above-described CRA was used to screen a library for compounds that interact with three control non-orphan receptors, and the results of this screen were compared to the results of screening the same library for compound that were identified using a Fluorometric Imaging Plate Reader (FLIPR) assay, a conventional technique commonly used to identify compounds interacting with non-orphan GPCRs signaling through Ca+. Three non-orphan GPCRs—Muscarinic acetylcholine receptor M1 (CHRM1), Adrenergic receptor alpha 1a (ADRA1a), and Neuropeptide S receptor (NPSR)—were screened against a 10,000-compound GPCR-focused library. Thirty interacting compound “hits” were identified using the CRA, and eighty-one hits were identified using the FLIPR for the CHRM1 receptor; 9 CRA hits and 29 FLIPR hits for the NPS receptor were identified; and 110 CRA hits and 110 FLIPR hits for ADRA1a.
In addition, the CRA can also provide the relative potencies of compounds against the target receptor.

[3] = biological target: T2, GPR174 (Homo sapiens, UniProt Q9BXC1); experiment: Cellular Redistribution Assay (CRA) against GPR174; design: fused on or other part: No tag or reporter is given; settings: FIG. 5A
Excerpt: One method for identifying compounds capable of modulating a receptor is using a cellular redistribution assay (“CRA”). Exemplary CRA methods are found in U.S. Pat. No. 7,309,576 issued to O'Dowd et al. and in O'Dowd et al., J. Biomol. Screen. 12:175-85, 2007. […] Incorporation of the NLS alters the cellular localization of the GPCR, such that the majority of the NLS-modified receptor is present in the cell interior. An NLS-modified GPCR, when interacting with a functionally active compound, is mostly localized on the cell surface. Thus, it becomes possible to identify receptor modulators without knowledge of the endogenous ligand or a surrogate ligand.
The inventors have identified a number of compounds that inhibit GPR174 using a CRA assay similar to that described in U.S. Pat. No. 7,309,576 and in O'Dowd et al., J. Biomol. Screen. 12:175-85, 2007. These compounds are described in detail below.
as §4
Target sequence in this assay (Q9BXC1 1-290 limits assumed): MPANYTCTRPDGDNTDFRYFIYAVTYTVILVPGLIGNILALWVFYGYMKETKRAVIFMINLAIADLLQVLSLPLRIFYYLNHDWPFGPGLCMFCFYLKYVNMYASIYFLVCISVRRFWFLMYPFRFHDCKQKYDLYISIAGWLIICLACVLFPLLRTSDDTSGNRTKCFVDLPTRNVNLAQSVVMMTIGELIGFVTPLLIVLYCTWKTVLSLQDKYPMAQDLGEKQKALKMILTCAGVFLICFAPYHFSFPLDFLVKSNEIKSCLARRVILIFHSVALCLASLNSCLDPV

[4] = biological target: T2, GPR174; experiment: CRE-Luc reporter Gs signaling assay, cells transfected with GPR174; design: host or cells: HEK293 or CHO cell lines (ATCC); settings: for effect on Gs pathway in the presence of GPR174: CRE-Luc reporter
Method: as §1, §2, §3
Target sequence in this assay (Q9BXC1 whole entry, the tested form may be a part): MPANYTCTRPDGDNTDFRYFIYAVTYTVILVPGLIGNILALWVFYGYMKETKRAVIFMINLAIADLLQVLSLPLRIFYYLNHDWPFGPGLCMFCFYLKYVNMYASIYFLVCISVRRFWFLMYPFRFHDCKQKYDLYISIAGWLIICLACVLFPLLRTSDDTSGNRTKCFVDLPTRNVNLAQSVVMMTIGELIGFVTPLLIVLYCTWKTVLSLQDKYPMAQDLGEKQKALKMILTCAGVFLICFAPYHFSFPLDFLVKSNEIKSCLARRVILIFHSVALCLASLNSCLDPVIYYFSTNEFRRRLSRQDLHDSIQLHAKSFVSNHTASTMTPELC

[5] = biological target: T2, GPR174; experiment: GloSensor assay, GPR174, with or without LysoPS; design: host or cells: HEK293 or CHO cell lines (ATCC)
Method: (§5) In order to confirm that GPR174 interacting compound #4 is an antagonist of GPR174-mediated Gs signaling, a GloSensor assay was carried out with increasing concentrations of compound #4 in the presence or absence of a fixed concentration (1 μM) of the GPR174 agonist LysoPS as follows.
(§6) The GloSensor Assay was performed by transiently transfecting the GPR174 construct, pCMV6-XL4-GPR174 or ADBR2, pGlo22 (300 ng) (Promega) with lipofectamine 2000 (60 μg) (Invitrogen, CA) according to the manufacturer's directions. The DNA/lipofectamine 2000 mix (3000 μL) was incubated at room temperature for 30 minutes and then added into a 10 cm culture dish (Corning, NY) containing 70-90% confluent cultured cells, typically HEK293 or CHO cell lines (ATCC, VA), in 15 mL of media. […] The cells were then incubated at room temperature for 2 hours and the cell plates were pre-read with a SpectraMax L (Molecular Devices, CA). After the pre-read, increasing concentrations of each compound in DMSO (1.0 μl) was added to the cells. The cell plates containing the compound were read immediately after the compound was added and at various times up to 30 minutes after the addition of the compound with a SpectraMax L (Molecular Devices, CA). Data were analyzed with either Excel (Microsoft, WA) or Prism 4.03 (GraphPad, CA).
Target sequence in this assay (Q9BXC1 whole entry, species assumed, the tested form may be a part): as the sequence (Q9BXC1 whole entry, the tested form may be a part) above

[6] = biological target: T1, ADBR2; experiment: GloSensor assay, ADBR2 control
Method: as §5, §6

With `CC(=O)N1CCN(c2cc(N3CCCCC3)c(F)cc2[N+](=O)[O-])CC1` [Compound 2] the “effect on Gs pathway in the presence of ADBR2” value [1] was “did not inhibit the Gs pathway”, the “activity in CRA against CHRM1” value [2] was “do not show any activity against CHRM1” and the “dose-response in CRA against GPR174” value [3] was “show a dose-response curve against GPR174”. For the same molecule, the “effect on Gs pathway in the presence of GPR174” value [4] was “inhibited the Gs pathway”.
In the case of `CCCC(=O)c1ccc(N2CCN(S(=O)(=O)c3ccc(C)cc3)CC2)c(F)c1` [Compound 4], the “effect on Gs pathway in the presence of ADBR2” value [1] is reported as “did not modulate the Gs pathway”, the “activity in CRA against CHRM1” value [2] is reported as “do not show any activity against CHRM1” and the “modulation of Gs pathway in the presence of GPR174 (GloSensor)” value ([5]; compound alone) is reported as “does not modulate the Gs pathway”. For the same molecule, the “competition with GPR174 agonist LysoPS (GloSensor)” value ([5]; fixed 1 μM LysoPS) was “does compete with the GPR174 agonist LysoPS”, the “dose-response in CRA against GPR174” value [3] was “show a dose-response curve against GPR174” and the “modulation of Gs signaling in the presence of ADBR (GloSensor)” value [6] was “neither compound #4 nor LysoPS modulate Gs signaling”. The “Human GPR174 CRE Activity: nature of compound” value [4] was “Antagonist”, the “effect on Gs pathway in the presence of GPR174” value [4] was “did not modulate the Gs pathway” and the “nature of compound in GPR174 signaling assay” value ([4]; human GPR174 with pCRE-Luc) was “GPR174 antagonist”.
With “lysophosphatidylserine [LysoPS, reference compound]” the “modulation of Gs signaling in the presence of ADBR (GloSensor)” value [6] was “neither compound #4 nor LysoPS modulate Gs signaling”.
